From patent publication US12043597B2, “Crystalline polymorphs of Rivoceranib and Rivoceranib mesylate” (ASSIA CHEMICAL INDUSTRIES LTD., priority 2018, dated 2024)

Assay: Solid-state (polymorphic) stability of the crystalline form under humidity, temperature and mass pressure stress
Assay type: physicochemical
Description: As used herein, the term “stable” in relation to crystalline Rivoceranib and Rivoceranib mesylate refers to less than 20%, less than 10%, less than 5%, less than 2%, less than 1%, or less than 0.5% conversion of crystalline Rivoceranib or Rivoceranib mesylate to any other solid state form of Rivoceranib or Rivoceranib mesylate, respectively.
As discussed above, depending on which other solid state it is compared with, Form RT2 of Rivoceranib according to the present disclosure may have advantageous properties as described above. Particularly, crystalline Form RT2 of Rivoceranib mesylate of the present disclosure is stable, for example upon exposure to high humidity or high temperature or high mass pressure conditions, such as 60° C./100% RH for up to 7 days or 80% RH at room temperature for 2 days, or under 100° C. for 60 minutes or under mass pressure of 2 ton for 1 minute.

CS(=O)(=O)O.N#CC1(c2ccc(NC(=O)c3cccnc3NCc3ccncc3)cc2)CCCC1 [Form RT2, N-[4-(1-Cyanocyclopentyl)phenyl]-2-(pyridin-4-ylmethylamino)pyridine-3-carboxamide methanesulfonate]
stable: stability upon exposure to high humidity and temperature (60° C./100% RH for up to 7 days) | stability upon exposure to high humidity (80% RH at room temperature for 2 days) | stability upon exposure to high temperature (100° C. for 60 minutes) | stability under high mass pressure (mass pressure of 2 ton for 1 minute)
